Experiments:
[1] = tested on: carotid artery endothelial layer; test: ex vivo transfer of drug crystals from an ePTFE substrate to a vascular tissue; parameters: species or system swine; conditions: 60 sec compression at 5.4 atm
Protocol: Substrates of ePTFE of Examples 1 and 2 were coated with paclitaxel (10 mg/ml) or paclitaxel/urea (1:1 mass ratio; 10 mg/ml paclitaxel) according to Example 4. The substrates were examined under SEM to confirm the presence of high aspect paclitaxel crystal habits embedded and oriented in the ePTFE microstructure.
A freshly harvested carotid artery from >2 yr old swine (Animal Technologies Inc., Tyler TX) was slit axially using a scalpel blade, cut lengthwise into portions, everted, and the portions adhered to a glass microscope slide using cyanoacrylate adhesive (Loctite), luminal aspect up. Tissue portions were kept wet using phosphate-buffered saline until use.
The glass microscope slide containing the artery portion was gently placed, tissue side down, upon the coated ePTFE substrate, to expose the endothelial layer to the paclitaxel crystals. The endothelial layer was compressed at about 5.4 atm against the coated ePTFE substrate for 60 sec. The glass microscope slide containing the artery portion was then examined under SEM.

[2] = ethylene oxide sterilization of coated ePTFE substrates, SEM visualization; format: physicochemical; conditions: conditioning about 24 hr, EtO dwell about 22 hr, 64° C., aeration about 12 hrs; samples of Examples 6 and 7
Protocol: Representative samples of Examples 6 and 7 were exposed to ethylene oxide sterilization, under conditions of conditioning for about 24 hr, an EtO gas dwell time of about 22 hr, a set point temperature of 64° C., and an aeration time of about 12 hrs. The samples were then visualized with SEM.

high aspect ratio of the crystals after compression (mechanical stability and strength) [1]: intact
acicular habits, geometry, penetration into ePTFE and angles of projection after ethylene oxide sterilization [2]: unaffected
Compound: CC(=O)O[C@H]1C(=O)[C@@]2(C)[C@H]([C@H](OC(=O)c3ccccc3)[C@]3(O)C[C@H](OC(=O)[C@H](O)[C@@H](NC(=O)c4ccccc4)c4ccccc4)C(C)=C1C3(C)C)[C@]1(OC(C)=O)CO[C@@H]1C[C@@H]2O [paclitaxel]

Reference: patent US12458732B2, “Porous composites with high-aspect ratio crystals” (W. L. Gore & Associates, Inc., priority 2013, dated 2025)
